In US20250353835A1, “N-TETRAZOLYL ARYL UREA-BASED DERIVATIVES, PREPARATION METHOD THEREFOR, AND USE THEREOF” (Hangzhou Yirui Pharmaceutical Technology Co., Ltd, priority 2022, published 2025):

Biological target: T1, human B1R (Homo sapiens, UniProt P46663)
T1 construct: host or cells: HEK293
T1 sequence (P46663 1-353): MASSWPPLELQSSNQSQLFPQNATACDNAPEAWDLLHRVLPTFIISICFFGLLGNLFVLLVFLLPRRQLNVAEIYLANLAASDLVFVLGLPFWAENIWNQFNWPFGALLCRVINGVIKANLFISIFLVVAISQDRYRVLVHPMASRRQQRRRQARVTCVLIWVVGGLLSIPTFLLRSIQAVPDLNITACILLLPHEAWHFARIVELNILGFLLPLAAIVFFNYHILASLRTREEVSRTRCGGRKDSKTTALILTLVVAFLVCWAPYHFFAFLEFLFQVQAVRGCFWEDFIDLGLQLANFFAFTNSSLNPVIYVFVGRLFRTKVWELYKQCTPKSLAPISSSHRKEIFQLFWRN
Test: FLIPR calcium ion flux assay, inhibitory activity against human B1R
Assay type: cell-based
Settings: HEK293 cells stably expressing human B1R; agonist [Lys-des-Arg9]-Bradykinin 4.6 nM (EC80); FLIPR method
Description: The inhibitory activity of the compounds against human B1R and B2R channels was determined by calcium ion flux assay using fluorometric imaging plate reader (FLIPR method). See literatures of Lee, Chen et al. for the method. [Lee et al. 2008][Chen et al. 2011]
1. Cell culture: HEK293 recombinant cell lines (WuXi AppTec, Shanghai, China) stably expressing human B1R and B2R were cultured in DMEM (Invitrogen, Cat #11965) medium containing 10% calf serum (Excellbio, Cat #FSP500), 5 μg/ml Geneticin (Invitrogen, Cat #10131) and Penicillin/Streptomycin (Invitrogen, Cat #15140). The incubator conditions were 37° C. and ambient humidity containing 5% CO2.
2. Preparation of the cell assay plate: B1R and B2R cells were seeded in a 384-well assay plate (Greiner, Cat #781090) at a density of 20,000 cells per well (20 μl/well), and cultured overnight at 37° C. in an incubator with 5% CO2. The next day, Fluo-4 Direct™ Loading Buffer (containing 5 mM Probenicid) containing 2× (8 μM) Fluo-4 Direct (Invitrogen, Cat #F10471) was added to each of the wells. The cells were cultured at 37° C. for 50 min, and then culture for at the room temperature 10 min.
3. Preparation of the compound assay plate: The compound was dissolved in 100% DMSO to make a 30 mM stock solution and stored at −20° C. On the day of use, the stock solution of the compound was thawed at the room temperature. Each of the compounds was serially diluted at 1:5 in DMSO culture medium with a starting concentration of 30 μM for 9 concentration points on a 384-well plate. Each of compounds was diluted in duplicate for testing. [Des-Arg10]-HOE140 was used as a positive control compound, and diluted in the same manner with a starting concentration of 3 μM.
4. FLIPR assay: The cell assay plate was placed in a FLIPR instrument ([…]). The compounds in the compound assay plate were added to the corresponding wells on the cell assay plate (10 μL/well) using an automatic program. The calcium ion fluorescence signal was recorded to determine whether the compound may have agonist activity. After 10 minutes, a B1R agonist [Lys-des-Arg9]-Bradykinin2 (10 μL/well) with a final concentration of 4.6 nM (EC80) was added to each of the wells to stimulate the generation of intracellular calcium ion flux signals. The Ca^++-dependent fluorescence signal was continuously monitored at a wavelength of 538 nm to analyze the inhibitory activity of the compound.
5. Data analysis: The data was collected and analyzed by a FLIPR program. The inhibitory (or agonist) activity of the compound at each concentration was evaluated by the fluorescence peak. The IC50 values of the compounds were calculated using EXCEL and PRISM programs.

First: COc1ccc(-c2c(F)cc(NC(=O)N3CCC(C(C)(C)C)CC3)cc2-c2nn[nH]n2)cc1Cl [Compound 33, 4-(tert-butyl)-N-(3′-chloro-2-fluoro-4′-methoxy-6-(2H-tetrazol-5-yl)-[1,1′-biphenyl]-4-yl)piperidine-1-carboxamide]
Second: COc1ccc(-c2ncc(NC(=O)N3CCC(C(C)(C)C)CC3)cc2-c2nn[nH]n2)cc1OC [Compound 35, 4-(tert-butyl)-N-(6-(3,4-dimethoxyphenyl)-5-(2H-tetrazol-5-yl)pyrid-3-yl)piperidine-1-carboxamide]
The IC50 of the first is 6.4-fold lower: 14.6 nM for the first, 92.9 nM for the second. The first is the more potent here.

First: Cn1ncc2cc(-c3c(F)cc(NC(=O)N4CCC(C(F)(F)F)CC4)cc3-c3nn[nH]n3)ccc21 [Compound 34, N-(3-fluoro-4-(1-methyl-1H-indazol-5-yl)-5-(2H-tetrazol-5-yl)phenyl)-4-(trifluoromethyl)piperidine-1-carboxamide]
Second: Cn1ncc2cc(-c3ncc(NC(=O)N4CCC(C(C)(C)C)CC4)cc3-c3nn[nH]n3)ccc21 [Compound 36, 4-(tert-butyl)-N-(6-(1-methyl-1H-indazol-5-yl)-5-(2H-tetrazol-5-yl)pyrid-3-yl)piperidine-1-carboxamide]
The IC50 of the first is 2.3-fold lower: 21.4 nM for the first, 48.3 nM for the second. The first is the more potent here.

`CCOC(=O)c1ncc(NC(=O)N2CCC(C(C)(C)C)CC2)cc1-c1nn[nH]n1` [Compound 37, ethyl 5-(4-(tert-butyl)piperidine-1-formamido)-3-(2H-tetrazol-5-yl)pyridylcarboxylate] and `CCOC(=O)c1ccc(NC(=O)N2CCC(C(C)(C)C)CC2)cc1-c1nn[nH]n1` [Compound 45, ethyl 4-(4-(tert-butyl)piperidine-1-formamido)-2-(2H-tetrazol-5-yl)benzoate] are within 1.5-fold of each other in IC50: 72.7 nM for the first, 103 nM for the second.

`CC(C)(C)C1CCN(C(=O)Nc2cnc(C(=O)OC3CCCCC3)c(-c3nn[nH]n3)c2)CC1` [Compound 38, cyclohexyl 5-(4-(tert-butyl)piperidine-1-formamido)-3-(2H-tetrazol-5-yl)pyridylcarboxylate] and `CC(C)(C)C1CCN(C(=O)Nc2ccc(C(=O)OC3CCCC3)c(-c3nn[nH]n3)c2)CC1` [Compound 43, cyclopentyl 4-(4-(tert-butyl)piperidine-1-formamido)-2-(2H-tetrazol-5-yl)benzoate] are within 1.5-fold of each other in IC50: 83.7 nM for the first, 95.2 nM for the second.

`CC(C)(C)C1CCN(C(=O)Nc2ccc(-c3ccc4c(c3)OCO4)c(-c3nn[nH]n3)c2)CC1` [Compound 39, N-(4-(benzo[d][1,3]dioxolan-5-yl)-3-(2H-tetrazol-5-yl)phenyl)-4-(tert-butyl)piperidine-1-carboxamide] and `CC(C)(C)C1CCN(C(=O)Nc2ccc(-c3ccc(C(F)F)nc3)c(-c3nn[nH]n3)c2)CC1` [Compound 42, 4-(tert-butyl)-N-(4-(6-(difluoromethyl)pyrid-3-yl)-3-(2H-tetrazol-5-yl)phenyl)piperidine-1-carboxamide] are within 1.5-fold of each other in IC50: 82.4 nM for the first, 109 nM for the second.

Compared with `CC(C)(C)C1CCN(C(=O)Nc2ccc(C3CCOCC3)c(-c3nn[nH]n3)c2)CC1` [Compound 40, 4-(tert-butyl)-N-(4-(tetrahydro-2H-pyran-4-yl)-3-(2H-tetrazol-5-yl)phenyl)piperidine-1-carboxamide], `CC(C)(C)C1CCN(C(=O)Nc2ccc(C3C=COCC3)c(-c3nn[nH]n3)c2)CC1` (centres unmarked) [Compound 41, 4-(tert-butyl)-N-(4-(3,4-dihydro-2H-pyran-4-yl)-3-(2H-tetrazol-5-yl)phenyl)piperidine-1-carboxamide] is 4.6-fold lower in IC50: 2040 nM for the first, 448 nM for the second.

`CC(C)(C)C1CCN(C(=O)Nc2ccc(C(=O)OC3CCOC3)c(-c3nn[nH]n3)c2)CC1` (centres unmarked) [Compound 44, tetrahydrofuran-3-yl 4-(4-(tert-butyl)piperidine-1-formamido)-2-(2H-tetrazol-5-yl)benzoate] and `CC(C)(C)C1CCN(C(=O)Nc2ccc(C(=O)NC3CCCC3)c(-c3nn[nH]n3)c2)CC1` [Compound 46, 4-(tert-butyl)-N-(4-(cyclopentylaminoformyl)-3-(2H-tetrazol-5-yl)phenyl)piperidine-1-carboxamide] are within 1.5-fold of each other in IC50: 106 nM for the first, 74.6 nM for the second.
